According to US20260284113A1, “COMPOSITIONS AND METHODS FOR TREATING PERIPHERAL VASCULAR DISEASE” (MAYO FOUNDATION FOR MEDICAL EDUCATION AND RESEARCH, priority 2022, published 2026):

Test system: HUVECs
Experiment: Matrigel tube formation assay
Format: cell-based, human
Settings: HUVECs on Matrigel, six hours; PEP 2.5×10^11 vesicles/mL, VEGF 100 ng/ml
Procedure: 96-well plates (Corning, Inc., Corning, NY) were pre-coated with MATRIGEL (Corning Life Sciences, Corning, NY) and allowed to solidify for one hour at 37° C. before cell seeding. GFP-tagged HUVECs (1×10^4 cells/well) were then added to individual wells in medium designated treatment. Images were acquired at time 0, one hour, three hours, and six hours post-treatment with an inverted microscope (DMI6000 B, Leica Microsystems GmbH, Wetzlar, Germany). All images were analyzed with Angiotool (Zudaire et al., 2011, PLoS One 6:e27385).

In the case of VEGF, the “number of junctions per field” value is reported as 59.75 and the “total length of branches per field” value is reported as 2459.59 pixels.
